According to ChEMBL document CHEMBL1201862, “PubChem BioAssay data set” (2004):
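Step 1: Grow cells in 96-well plates. Step 2: Expose to compound for 48 hours at 5 concentrations. Step 3: Interpolate endpoints linearly; if unreached, use highest concentration. The concentration for 50% growth inhibition is given as GI50.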 Active and inactive are the calls of the source. No stated cut-off is given here; in the data, active = GI50 up to about 1.1 µM and inactive = higher.

Key:
Test in all cases: growth of human tumour cells (NCI), 48 h
SK-MEL-2 = test system: SK-MEL-2
HOP-62 = test system: HOP-62
KM12 = test system: KM12
MDA-N = test system: MDA-N
U-251 = test system: U-251
K562 = test system: K562
SF-295 = test system: SF-295
A549 = test system: A549
Malme-3M = test system: Malme-3M
A498 = test system: A498
M14 = test system: M14
SF-539 = test system: SF-539
MDA-MB-435 = test system: MDA-MB-435
SNB-19 = test system: SNB-19
PC-3 = test system: PC-3
OVCAR-5 = test system: OVCAR-5
SN12C = test system: SN12C
DU-145 = test system: DU-145
HCT-116 = test system: HCT-116
ACHN = test system: ACHN
HCC 2998 = test system: HCC 2998
SW-620 = test system: SW-620
CAKI-1 = test system: CAKI-1
T47D = test system: T47D
NCI-H522 = test system: NCI-H522
COLO 205 = test system: COLO 205
786-0 = test system: 786-0
NCI-H23 = test system: NCI-H23
Hs-578T = test system: Hs-578T
IGROV-1 = test system: IGROV-1
EKVX = test system: EKVX
SF-268 = test system: SF-268
LOX IMVI = test system: LOX IMVI
SK-MEL-5 = test system: SK-MEL-5
OVCAR-4 = test system: OVCAR-4
OVCAR-3 = test system: OVCAR-3
UO-31 = test system: UO-31
UACC-257 = test system: UACC-257
NCI-H460 = test system: NCI-H460
NCI/ADR-RES = test system: NCI/ADR-RES
UACC-62 = test system: UACC-62
SK-OV-3 = test system: SK-OV-3
HCT-15 = test system: HCT-15
TK-10 = test system: TK-10
SR = test system: SR
OVCAR-8 = test system: OVCAR-8
SK-MEL-28 = test system: SK-MEL-28
HT-29 = test system: HT-29
MCF7 = test system: MCF7
HOP-92 = test system: HOP-92
SNB-75 = test system: SNB-75
MDA-MB-231 = test system: MDA-MB-231
NCI-H226 = test system: NCI-H226
RXF 393 = test system: RXF 393
MOLT-4 = test system: MOLT-4
RPMI-8226 = test system: RPMI-8226
CCRF-CEM = test system: CCRF-CEM
HL-60 = test system: HL-60

SMILES: O=C(C#CP(=O)(O)c1ccccc1)c1ccccc1
- GI50 (SK-MEL-2): > 100 µM (inactive)
- GI50 (HOP-62): > 100 µM (inactive)
- GI50 (KM12): > 100 µM (inactive)
- GI50 (MDA-N): > 100 µM (inactive)
- GI50 (U-251): > 100 µM (inactive)
- GI50 (K562): > 100 µM (inactive)
- GI50 (SF-295): > 100 µM (inactive)
- GI50 (A549): > 100 µM (inactive)
- GI50 (Malme-3M): > 100 µM (inactive)
- GI50 (A498): > 100 µM (inactive)
- GI50 (M14): > 100 µM (inactive)
- GI50 (SF-539): > 100 µM (inactive)
- GI50 (MDA-MB-435): > 100 µM (inactive)
- GI50 (SNB-19): > 100 µM (inactive)
- GI50 (PC-3): > 100 µM (inactive)
- GI50 (OVCAR-5): > 100 µM (inactive)
- GI50 (SN12C): > 100 µM (inactive)
- GI50 (DU-145): > 100 µM (inactive)
- GI50 (HCT-116): > 100 µM (inactive)
- GI50 (ACHN): > 100 µM (inactive)
- GI50 (HCC 2998): > 100 µM (inactive)
- GI50 (SW-620): > 100 µM (inactive)
- GI50 (CAKI-1): > 100 µM (inactive)
- GI50 (T47D): > 100 µM (inactive)
- GI50 (NCI-H522): > 100 µM (inactive)
- GI50 (COLO 205): > 100 µM (inactive)
- GI50 (786-0): > 100 µM (inactive)
- GI50 (NCI-H23): > 100 µM (inactive)
- GI50 (Hs-578T): > 100 µM (inactive)
- GI50 (IGROV-1): > 100 µM (inactive)
- GI50 (EKVX): > 100 µM (inactive)
- GI50 (SF-268): > 100 µM (inactive)
- GI50 (LOX IMVI): > 100 µM (inactive)
- GI50 (SK-MEL-5): > 100 µM (inactive)
- GI50 (OVCAR-4): > 100 µM (inactive)
- GI50 (OVCAR-3): > 100 µM (inactive)
- GI50 (UO-31): < 0.01 µM (active)
- GI50 (UACC-257): > 100 µM (inactive)
- GI50 (NCI-H460): > 100 µM (inactive)
- GI50 (NCI/ADR-RES): > 100 µM (inactive)
- GI50 (UACC-62): > 100 µM (inactive)
- GI50 (SK-OV-3): > 100 µM (inactive)
- GI50 (HCT-15): > 100 µM
- GI50 (TK-10): > 100 µM (inactive)
- GI50 (SR): > 100 µM (inactive)
- GI50 (OVCAR-8): > 100 µM (inactive)
- GI50 (SK-MEL-28): > 100 µM (inactive)
- GI50 (HT-29): > 100 µM (inactive)
- GI50 (MCF7): > 100 µM (inactive)
- GI50 (HOP-92): > 100 µM (inactive)
- GI50 (SNB-75): > 100 µM (inactive)

SMILES: COC(=O)c1ccc(C)cc1C1CN=NC12Cc1cc(C)c(C)cc1C2=O (stereo not drawn)
- GI50 (HOP-62): > 100 µM (inactive)
- GI50 (KM12): 30.2 µM (inactive)
- GI50 (MDA-N): 27.9 µM (inactive)
- GI50 (U-251): 46.7 µM (inactive)
- GI50 (K562): 27.4 µM (inactive)
- GI50 (SF-295): 47.3 µM (inactive)
- GI50 (MDA-MB-231): 27 µM (inactive)
- GI50 (A549): 34.4 µM (inactive)
- GI50 (Malme-3M): 30.5 µM (inactive)
- GI50 (A498): 57.4 µM (inactive)
- GI50 (M14): 35.4 µM (inactive)
- GI50 (SF-539): 50.6 µM (inactive)
- GI50 (MDA-MB-435): 24.9 µM (inactive)
- GI50 (SNB-19): 42.4 µM (inactive)
- GI50 (OVCAR-5): > 100 µM (inactive)
- GI50 (SN12C): 42.4 µM (inactive)
- GI50 (DU-145): 59.2 µM (inactive)
- GI50 (HCT-116): 24.2 µM (inactive)
- GI50 (ACHN): 29.5 µM (inactive)
- GI50 (HCC 2998): 29.8 µM (inactive)
- GI50 (SW-620): 35.6 µM (inactive)
- GI50 (CAKI-1): 79.8 µM (inactive)
- GI50 (NCI-H226): 45.1 µM (inactive)
- GI50 (RXF 393): 31.8 µM (inactive)
- GI50 (NCI-H522): 27.7 µM (inactive)
- GI50 (786-0): 54.7 µM (inactive)
- GI50 (NCI-H23): 40.6 µM (inactive)
- GI50 (Hs-578T): 46.5 µM (inactive)
- GI50 (IGROV-1): > 100 µM (inactive)
- GI50 (EKVX): 24.3 µM (inactive)
- GI50 (SF-268): 36.6 µM (inactive)
- GI50 (LOX IMVI): 25.9 µM (inactive)
- GI50 (MOLT-4): 26.7 µM (inactive)
- GI50 (SK-MEL-5): 14.9 µM (inactive)
- GI50 (OVCAR-4): > 100 µM (inactive)
- GI50 (OVCAR-3): 49.5 µM (inactive)
- GI50 (UO-31): 46.1 µM (inactive)
- GI50 (UACC-257): 53.2 µM (inactive)
- GI50 (NCI-H460): 37.7 µM (inactive)
- GI50 (NCI/ADR-RES): 28.6 µM (inactive)
- GI50 (RPMI-8226): 27.9 µM (inactive)
- GI50 (HCT-15): 48.1 µM
- GI50 (TK-10): > 100 µM (inactive)
- GI50 (SR): 48.5 µM (inactive)
- GI50 (OVCAR-8): 65 µM (inactive)
- GI50 (SK-MEL-28): 45.7 µM (inactive)
- GI50 (CCRF-CEM): 31 µM (inactive)
- GI50 (HT-29): 25.3 µM (inactive)
- GI50 (MCF7): 38.7 µM (inactive)
- GI50 (HL-60): 19.7 µM (inactive)
- GI50 (HOP-92): 34.2 µM (inactive)
- GI50 (SNB-75): 35.9 µM (inactive)

SMILES: CC1C(=O)C(C)C(c2ccccc2)N(C)C1c1ccccc1 (stereo not drawn)
- GI50 (OVCAR-5): 63.8 µM (inactive)
- GI50 (MOLT-4): 34.5 µM (inactive)
- GI50 (SR): 32.3 µM (inactive)
- GI50 (HT-29): 47.6 µM (inactive)
- GI50 (HL-60): 39.8 µM (inactive)
